Test results: patent US20020111274A1, “1-alkyl-3-[1-(substituted phenyl) benzotriazol-6-yl] uracils” (BASF Aktiengesellschaft, priority 2000, published 2002)

Assays:
Parameters in all cases: scale not given here
SETVI Foxtail, Green [1] = assay: Preemergence herbicidal evaluation, SETVI; assay type: in vivo, Setaria viridis, (L.) Beau; conditions: preemergence
In short: (§1)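 Visual ratings were taken four to five weeks after application. Before that, cups sown with seed in potting soil received a spray of compound dissolved in aqueous acetone, equivalent to about 0.013 to 0.800 kg/ha, and stood on greenhouse benches under conventional care.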

[2] = system: IPOHE Morningglory, Ivyleaf; assay: Postemergence herbicidal evaluation, IPOHE; assay type: in vivo, Ipomoea hederacea, (L.) Jacq.; conditions: postemergence spray, rated about two-three weeks after treatment
In short: (§2)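 Two-week-old seedlings sprayed postemergence with compound in 80/20 acetone/water plus 1.0% methylated seed oil, at about 0.006–0.400 kg/ha, through a nozzle at 40 psi. Plants kept under greenhouse conditions and visually rated about two–three weeks after treatment; ratings from repeat tests averaged.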

AMBEL Ragweed, Common [3] = assay: Postemergence herbicidal evaluation, AMBEL; assay type: in vivo, Ambrosia artemisifolia, L.; conditions: postemergence spray, rated about two-three weeks after treatment
In short: as §2

GLXMAW Soybean, Williams [4] = assay: Postemergence herbicidal evaluation, GLXMAW; assay type: in vivo, Glycine max, (L.) Merr. cv Williams; conditions: postemergence spray, rated about two-three weeks after treatment
In short: as §2

[5] = system: TRZAWR Wheat, Winter, cv Riband; assay: Preemergence herbicidal evaluation, TRZAWR; assay type: in vivo, Triticum aestivum; conditions: preemergence
In short: as §1

GALAP Galium [6] = assay: Preemergence herbicidal evaluation, GALAP; assay type: in vivo, Galium aparine; conditions: preemergence
In short: as §1

ZEAMX Corn, Field = assay: Postemergence herbicidal evaluation, ZEAMX; assay type: in vivo, Zea mays, L. (Sammel-Bezeichnung); conditions: postemergence spray, rated about two-three weeks after treatment
In short: as §2

SETVI Foxtail, Green [7] = assay: Postemergence herbicidal evaluation, SETVI; assay type: in vivo, Setaria viridis, (L.) Beau; conditions: postemergence spray, rated about two-three weeks after treatment
In short: as §2

ECHOG Barnyardgrass = assay: Preemergence herbicidal evaluation, ECHOG; assay type: in vivo, Echinochloa crus-galli, (L.) Beau; conditions: preemergence
In short: as §1

[8] = system: IPOHE Morningglory, Ivyleaf; assay: Preemergence herbicidal evaluation, IPOHE; assay type: in vivo, Ipomoea hederacea, (L.) Jacq.; conditions: preemergence
In short: as §1

[9] = system: CHEAL Lambsquarters, Common; assay: Preemergence herbicidal evaluation, CHEAL; assay type: in vivo, Chenopodium album, L.; conditions: preemergence
In short: as §1

ORYSAT Rice, Tebonnet [10] = assay: Postemergence herbicidal evaluation, ORYSAT; assay type: in vivo, Oryza sativa, (L.); conditions: postemergence spray, rated about two-three weeks after treatment
In short: as §2

CASOB Sicklepod [11] = assay: Preemergence herbicidal evaluation, CASOB; assay type: in vivo, Cassia obtusifolia, L.; conditions: preemergence
In short: as §1

GLXMAW Soybean, Williams [12] = assay: Preemergence herbicidal evaluation, GLXMAW; assay type: in vivo, Glycine max, (L.) Merr. cv Williams; conditions: preemergence
In short: as §1

[13] = system: CHEAL Lambsquarters, Common; assay: Postemergence herbicidal evaluation, CHEAL; assay type: in vivo, Chenopodium album, L.; conditions: postemergence spray, rated about two-three weeks after treatment
In short: as §2

GALAP Galium [14] = assay: Postemergence herbicidal evaluation, GALAP; assay type: in vivo, Galium aparine; conditions: postemergence spray, rated about two-three weeks after treatment
In short: as §2

AMBEL Ragweed, Common [15] = assay: Preemergence herbicidal evaluation, AMBEL; assay type: in vivo, Ambrosia artemisifolia, L.; conditions: preemergence
In short: as §1

ORYSAT Rice, Tebonnet [16] = assay: Preemergence herbicidal evaluation, ORYSAT; assay type: in vivo, Oryza sativa, (L.); conditions: preemergence
In short: as §1

CASOB Sicklepod [17] = assay: Postemergence herbicidal evaluation, CASOB; assay type: in vivo, Cassia obtusifolia, L.; conditions: postemergence spray, rated about two-three weeks after treatment
In short: as §2

Cc1ccc(O)c(-n2nnc3cc(F)c(-n4c(=O)cc(C(F)(F)F)n(C)c4=O)cc32)c1 [Example 31, 3-[5-Fluoro-1-(2-Hydroxy-5-Methylphenyl)-1H-1,2,3-Benzotriazol-6-yl]-1-Methyl-6-(Trifluoromethyl)-2,4(1H,3H)-(Pyrimidinedione)]
SETVI herbicidal rating (SETVI Foxtail, Green [1]; rate 0.008 kg/ha): 0.0
SETVI herbicidal rating (SETVI Foxtail, Green [1]; rate 0.016 kg/ha): 0.0
SETVI herbicidal rating (SETVI Foxtail, Green [1]; rate 0.032 kg/ha): 0.0
SETVI herbicidal rating (SETVI Foxtail, Green [1]; rate 0.062 kg/ha): 0.0
SETVI herbicidal rating (SETVI Foxtail, Green [1]; rate 0.125 kg/ha): 0.0
Postemergence herbicidal rating IPOHE ([2]; 0.008 kg/ha): 1.0
Postemergence herbicidal rating IPOHE ([2]; 0.016 kg/ha): 2.0
Postemergence herbicidal rating IPOHE ([2]; 0.032 kg/ha): 4.0
Postemergence herbicidal rating IPOHE ([2]; 0.062 kg/ha): 4.0
Postemergence herbicidal rating AMBEL (AMBEL Ragweed, Common [3]; 0.008 kg/ha): 0.0
Postemergence herbicidal rating AMBEL (AMBEL Ragweed, Common [3]; 0.016 kg/ha): 0.0
Postemergence herbicidal rating AMBEL (AMBEL Ragweed, Common [3]; 0.032 kg/ha): 0.0
Postemergence herbicidal rating AMBEL (AMBEL Ragweed, Common [3]; 0.062 kg/ha): 3.0
Postemergence herbicidal rating GLXMAW (GLXMAW Soybean, Williams [4]; 0.008 kg/ha): 3.5
Postemergence herbicidal rating GLXMAW (GLXMAW Soybean, Williams [4]; 0.016 kg/ha): 3.5
Postemergence herbicidal rating GLXMAW (GLXMAW Soybean, Williams [4]; 0.032 kg/ha): 4.5
Postemergence herbicidal rating GLXMAW (GLXMAW Soybean, Williams [4]; 0.062 kg/ha): 5.0
TRZAWR herbicidal rating ([5]; rate 0.008 kg/ha): 0.0
TRZAWR herbicidal rating ([5]; rate 0.016 kg/ha): 0.0
TRZAWR herbicidal rating ([5]; rate 0.032 kg/ha): 0.0
TRZAWR herbicidal rating ([5]; rate 0.062 kg/ha): 0.0
TRZAWR herbicidal rating ([5]; rate 0.125 kg/ha): 0.0
GALAP herbicidal rating (GALAP Galium [6]; rate 0.008 kg/ha): 0.0
GALAP herbicidal rating (GALAP Galium [6]; rate 0.016 kg/ha): 0.0
GALAP herbicidal rating (GALAP Galium [6]; rate 0.032 kg/ha): 0.0
GALAP herbicidal rating (GALAP Galium [6]; rate 0.062 kg/ha): 0.0
GALAP herbicidal rating (GALAP Galium [6]; rate 0.125 kg/ha): 0.0
Postemergence herbicidal rating ZEAMX (ZEAMX Corn, Field; 0.008 kg/ha): 3.5
Postemergence herbicidal rating ZEAMX (ZEAMX Corn, Field; 0.016 kg/ha): 3.5
Postemergence herbicidal rating ZEAMX (ZEAMX Corn, Field; 0.032 kg/ha): 4.5
Postemergence herbicidal rating ZEAMX (ZEAMX Corn, Field; 0.062 kg/ha): 4.5
Postemergence herbicidal rating SETVI (SETVI Foxtail, Green [7]; 0.008 kg/ha): 0.0
Postemergence herbicidal rating SETVI (SETVI Foxtail, Green [7]; 0.016 kg/ha): 0.0
Postemergence herbicidal rating SETVI (SETVI Foxtail, Green [7]; 0.032 kg/ha): 0.0
Postemergence herbicidal rating SETVI (SETVI Foxtail, Green [7]; 0.062 kg/ha): 5.0
ECHCG herbicidal rating (ECHOG Barnyardgrass; rate 0.008 kg/ha): 0.0
ECHCG herbicidal rating (ECHOG Barnyardgrass; rate 0.016 kg/ha): 0.0
ECHCG herbicidal rating (ECHOG Barnyardgrass; rate 0.032 kg/ha): 0.0
ECHCG herbicidal rating (ECHOG Barnyardgrass; rate 0.062 kg/ha): 0.0
ECHCG herbicidal rating (ECHOG Barnyardgrass; rate 0.125 kg/ha): 0.0
IPOHE herbicidal rating ([8]; rate 0.008 kg/ha): 0.0
IPOHE herbicidal rating ([8]; rate 0.016 kg/ha): 0.0
IPOHE herbicidal rating ([8]; rate 0.032 kg/ha): 0.0
IPOHE herbicidal rating ([8]; rate 0.062 kg/ha): 0.0
IPOHE herbicidal rating ([8]; rate 0.125 kg/ha): 0.0
CHEAL herbicidal rating ([9]; rate 0.008 kg/ha): 0.0
CHEAL herbicidal rating ([9]; rate 0.016 kg/ha): 0.0
CHEAL herbicidal rating ([9]; rate 0.032 kg/ha): 0.0
CHEAL herbicidal rating ([9]; rate 0.062 kg/ha): 3.0
CHEAL herbicidal rating ([9]; rate 0.125 kg/ha): 9.0
Postemergence herbicidal rating ORYSAT (ORYSAT Rice, Tebonnet [10]; 0.008 kg/ha): 1.0
Postemergence herbicidal rating ORYSAT (ORYSAT Rice, Tebonnet [10]; 0.016 kg/ha): 1.0
Postemergence herbicidal rating ORYSAT (ORYSAT Rice, Tebonnet [10]; 0.032 kg/ha): 1.5
Postemergence herbicidal rating ORYSAT (ORYSAT Rice, Tebonnet [10]; 0.062 kg/ha): 1.5
CASOB herbicidal rating (CASOB Sicklepod [11]; rate 0.008 kg/ha): 0.0
CASOB herbicidal rating (CASOB Sicklepod [11]; rate 0.016 kg/ha): 0.0
CASOB herbicidal rating (CASOB Sicklepod [11]; rate 0.032 kg/ha): 0.0
CASOB herbicidal rating (CASOB Sicklepod [11]; rate 0.062 kg/ha): 0.0
CASOB herbicidal rating (CASOB Sicklepod [11]; rate 0.125 kg/ha): 0.0
GLXMAW herbicidal rating (GLXMAW Soybean, Williams [12]; rate 0.008 kg/ha): 0.0
GLXMAW herbicidal rating (GLXMAW Soybean, Williams [12]; rate 0.016 kg/ha): 0.0
GLXMAW herbicidal rating (GLXMAW Soybean, Williams [12]; rate 0.032 kg/ha): 0.0
GLXMAW herbicidal rating (GLXMAW Soybean, Williams [12]; rate 0.062 kg/ha): 0.0
GLXMAW herbicidal rating (GLXMAW Soybean, Williams [12]; rate 0.125 kg/ha): 0.0
Postemergence herbicidal rating CHEAL ([13]; 0.008 kg/ha): 0.0
Postemergence herbicidal rating CHEAL ([13]; 0.016 kg/ha): 0.0
Postemergence herbicidal rating CHEAL ([13]; 0.032 kg/ha): 0.0
Postemergence herbicidal rating CHEAL ([13]; 0.062 kg/ha): 0.0
Postemergence herbicidal rating GALAP (GALAP Galium [14]; 0.008 kg/ha): 0.0
Postemergence herbicidal rating GALAP (GALAP Galium [14]; 0.016 kg/ha): 0.0
Postemergence herbicidal rating GALAP (GALAP Galium [14]; 0.032 kg/ha): 0.0
Postemergence herbicidal rating GALAP (GALAP Galium [14]; 0.062 kg/ha): 0.0
AMBEL herbicidal rating (AMBEL Ragweed, Common [15]; rate 0.008 kg/ha): 0.0
AMBEL herbicidal rating (AMBEL Ragweed, Common [15]; rate 0.016 kg/ha): 0.0
AMBEL herbicidal rating (AMBEL Ragweed, Common [15]; rate 0.032 kg/ha): 0.0
AMBEL herbicidal rating (AMBEL Ragweed, Common [15]; rate 0.062 kg/ha): 0.0
AMBEL herbicidal rating (AMBEL Ragweed, Common [15]; rate 0.125 kg/ha): 0.0
ORYSAT herbicidal rating (ORYSAT Rice, Tebonnet [16]; rate 0.008 kg/ha): 0.0
ORYSAT herbicidal rating (ORYSAT Rice, Tebonnet [16]; rate 0.016 kg/ha): 0.0
ORYSAT herbicidal rating (ORYSAT Rice, Tebonnet [16]; rate 0.032 kg/ha): 0.0
ORYSAT herbicidal rating (ORYSAT Rice, Tebonnet [16]; rate 0.062 kg/ha): 0.0
ORYSAT herbicidal rating (ORYSAT Rice, Tebonnet [16]; rate 0.125 kg/ha): 0.0
Postemergence herbicidal rating CASOB (CASOB Sicklepod [17]; 0.008 kg/ha): 0.0
Postemergence herbicidal rating CASOB (CASOB Sicklepod [17]; 0.016 kg/ha): 0.0
Postemergence herbicidal rating CASOB (CASOB Sicklepod [17]; 0.032 kg/ha): 0.0
Postemergence herbicidal rating CASOB (CASOB Sicklepod [17]; 0.062 kg/ha): 0.0
